Results published in patent publication US8367718B2, “Epigallocatechin gallate trimer and α-glucosidase inhibitor containing epigallocatechin gallate polymer” (Suntory Holdings Limited, priority 2008, dated 2013).
Entries after “also recorded” stand apart in the source; their conditions may differ. Blank lines part the entries; values can stand above or below the compound they belong to.

Assays:
maltase = details: background art, literature values; read-out: maltase inhibitory activity IC50; cited from earlier work
α-glucosidase = assay: Alpha-glucosidase inhibitory activity of EGCG polymers (p-nitrophenyl-α-D-glucopyranoside substrate, A405 nm); assay type: biochemical; details: for α-glucosidase inhibitory activity (in words): qualitative statement; for inhibitory activity relative to the EGCG monomer: α-glucosidase, compared with EGCG monomer
Experimental: A […] sodium phosphate buffer solution was prepared by blending 0.1 M NaH2PO4.2H2O and 0.1M Na2HPO4.12H2O and the pH was adjusted to 7.0. To this, 2 g/L bovine serum albumin (F-V, manufactured by Nacalai Tesque Inc., pH 5.2, purity 96%) and 0.2 g/L NaN3 (manufactured by Nacalai Tesque Inc., special grade reagent) were added. An enzyme solution was prepared by dissolving α-glucosidase (manufactured by Wako Pure Chemical Industries Ltd., derived from yeast, 100 units/mg) in the above buffer solution so as to obtain 0.5 units/mg protein /ml (100 μg/20 ml). A substrate solution was prepared by dissolving p-nitrophenyl-α-D-glucopyranoside (manufactured by Nacalai Tesque Inc., special grade reagent) in the buffer solution so as to obtain 5 mM (7.525 mg/5 ml).
Of the samples used for evaluation, theasinensin (TSN)-A and TSN-D were synthesized in accordance with the paper (Hashimoto, F. Nonaka, G. Nishioka, I. Chem. Pharm. Bull. 36 (5), 1676-1684 (1988)) and oolongtheanin-gallate (hereinafter referred to as “OTNG”) were synthesized in accordance with the method described in the paper of J. Agric. Food Chem. 53, 4593-4598 (2005).
These samples were prepared so as to satisfy 10 mg/ml DMSO and serially diluted 6 times by doubling dilution. Using a 96-well microplate, enzyme solution (45 μL) was added to a sample solution (10 μL) and pre-incubated at 37° C. for 5 minutes. Thereafter, the substrate solution (45 μL) was added and absorbance was measured at A 405 nm. After incubation was performed at 37° C. for 5 minutes, absorbance was measured at A 405 nm. The inhibition rate was calculated as a difference from the absorbance at A405 nm of a control, which contains DMSO alone in place of a sample. Each activity measurement was performed twice.

Compound: O=C(O[C@@H]1Cc2c(O)cc(O)cc2O[C@@H]1c1cc(O)c(O)c(O)c1-c1c([C@H]2Oc3cc(O)cc(O)c3C[C@H]2OC(=O)c2cc(O)c(O)c(O)c2)cc(O)c(O)c1O)c1cc(O)c(O)c(O)c1 (single isomer, unassigned) [TSN-A, theasinensin A]
- IC50 (maltase): 142 µM

- α-glucosidase inhibitory activity (in words) (α-glucosidase): significant inhibitory activity
Compound: O=C(O[C@@H]1Cc2c(cc(O)c(Cc3c(O)c(Cc4c(O)cc(O)c5c4O[C@H](c4cc(O)c(O)c(O)c4)[C@H](OC(=O)c4cc(O)c(O)c(O)c4)C5)c(O)c4c3O[C@H](c3cc(O)c(O)c(O)c3)[C@H](OC(=O)c3cc(O)c(O)c(O)c3)C4)c2O)O[C@@H]1c1cc(O)c(O)c(O)c1)c1cc(O)c(O)c(O)c1 [OHBF-trimer-2, (2R,3R)-8-(((2R,3R)-8-(((2R,3R)-5,7-dihydroxy-3-(3,4,5-trihydroxybenzoyloxy)-2-(3,4,5-trihydroxyphenyl)chroman-6-yl)methyl)-5,7-dihydroxy-3-(3,4,5-trihydroxybenzoyloxy)-2-(3,4,5-trihydroxyphenyl)chroman-6-yl)methyl)-5,7-dihydroxy-2-(3,4,5-trihydroxyphenyl)chroman-3-yl 3,4,5-trihydroxybenzoate]

- α-glucosidase inhibitory activity (in words) (α-glucosidase): significant inhibitory activity
Compound: O=C(OC1Cc2c(O)cc(O)c(Cc3c(O)c(Cc4c(O)c(Cc5c(O)cc(O)c6c5OC(c5cc(O)c(O)c(O)c5)C(OC(=O)c5cc(O)c(O)c(O)c5)C6)c(O)c5c4OC(c4cc(O)c(O)c(O)c4)C(OC(=O)c4cc(O)c(O)c(O)c4)C5)c4c(c3O)CC(OC(=O)c3cc(O)c(O)c(O)c3)C(c3cc(O)c(O)c(O)c3)O4)c2OC1c1cc(O)c(O)c(O)c1)c1cc(O)c(O)c(O)c1 [OHBF-tetramer-2, (2R,2′R,3R,3′R)-8,8′-(2R,2′R,3R,3′R)-8,8′-methylenebis(5,7-dihydroxy-3-(3,4,5-trihydroxybenzoyloxy)-2-(3,4,5-trihydroxyphenyl)chroman-8,6-diyl)bis(methylene)bis(5,7-dihydroxy-2-(3,4,5-trihydroxyphenyl)chroman-8,3-diyl) bis(3,4,5-trihydroxybenzoate)]

- inhibitory activity relative to the EGCG monomer (α-glucosidase): 10 times
Compound: O=C(O[C@@H]1Cc2c(cc(O)c(Cc3c(O)c(Cc4c(O)cc(O)c5c4O[C@H](c4cc(O)c(O)c(O)c4)[C@H](OC(=O)c4cc(O)c(O)c(O)c4)C5)c4c(c3O)C[C@@H](OC(=O)c3cc(O)c(O)c(O)c3)[C@@H](c3cc(O)c(O)c(O)c3)O4)c2O)O[C@@H]1c1cc(O)c(O)c(O)c1)c1cc(O)c(O)c(O)c1 [OHBF-trimer-4, (2R,3R)-8-(((2R,3R)-6-(((2R,3R)-5,7-dihydroxy-3-(3,4,5-trihydroxybenzoyloxy)-2-(3,4,5-trihydroxyphenyl)chroman-6-yl)methyl)-5,7-dihydroxy-3-(3,4,5-trihydroxybenzoyloxy)-2-(3,4,5-trihydroxyphenyl)chroman-8-yl)methyl)-5,7-dihydroxy-2-(3,4,5-trihydroxyphenyl)chroman-3-yl 3,4,5-trihydroxybenzoate]
- α-glucosidase inhibitory activity (in words) (α-glucosidase; listed as oolong homobisflavan-trimer-4): particularly strong activities; also recorded: significant inhibitory activity; also recorded: high activity

Compound: 3-sophoroside-5-glucoside of peonidin
- IC50 (maltase): 200 µM

- α-glucosidase inhibitory activity (in words) (α-glucosidase; listed as Oolong homobisflavan-tetramer-1): particularly strong activities
- inhibitory activity relative to the EGCG monomer (α-glucosidase): 10 times
Compound: O=C(OC1Cc2c(O)cc(O)c(Cc3c(O)c(Cc4c(O)c(Cc5c(O)cc(O)c6c5OC(c5cc(O)c(O)c(O)c5)C(OC(=O)c5cc(O)c(O)c(O)c5)C6)c5c(c4O)CC(OC(=O)c4cc(O)c(O)c(O)c4)C(c4cc(O)c(O)c(O)c4)O5)c4c(c3O)CC(OC(=O)c3cc(O)c(O)c(O)c3)C(c3cc(O)c(O)c(O)c3)O4)c2OC1c1cc(O)c(O)c(O)c1)c1cc(O)c(O)c(O)c1 [OHBF-tetramer-1, (2R,3R)-8-(H2R,3R)-8-(((2R,3R)-8-(((2R,3R)-5,7-dihydroxy-3-(3,4,5-trihydroxybenzoyloxy)-2-(3,4,5-trihydroxyphenyl)chroman-8-yl)methyl)-5,7-dihydroxy-3-(3,4,5-trihydroxybenzoyloxy)-2-(3,4,5-trihydroxyphenyl)chroman-6-yl)methyl)-5,7-dihydroxy-3-(3,4,5-trihydroxybenzoyloxy)-2-(3,4,5-trihydroxyphenyl)chroman-6-yl)methyl)-5,7-dihydroxy-2-(3,4,5-trihydroxyphenyl)chroman-3-yl 3,4,5-trihydroxybenzoate]
- α-glucosidase inhibitory activity (in words) (α-glucosidase; listed as oolong homobisflavan-tetramer-1): significant inhibitory activity; also recorded: high activity

- α-glucosidase inhibitory activity (in words) (α-glucosidase): strong α-glucosidase inhibitory activity
Compound: O=C(O[C@@H]1Cc2c(O)cc(O)cc2O[C@@H]1c1cc(O)c(O)c(O)c1-c1c([C@H]2Oc3cc(O)cc(O)c3C[C@H]2OC(=O)c2cc(O)c(O)c(O)c2)cc(O)c(O)c1O)c1cc(O)c(O)c(O)c1 (single isomer, unassigned) [TSN-D, theasinensin-D]

- α-glucosidase inhibitory activity (in words) (α-glucosidase): strong α-glucosidase inhibitory activity
Compound: O=C(O[C@@H]1Cc2c(cc(O)c(Cc3c(O)cc(O)c4c3O[C@H](c3cc(O)c(O)c(O)c3)[C@H](OC(=O)c3cc(O)c(O)c(O)c3)C4)c2O)O[C@@H]1c1cc(O)c(O)c(O)c1)c1cc(O)c(O)c(O)c1 [OHBF-B, oolong homobisflavan-B]
